The source of these data is patent US11116708B2, “Personal care compositions including naringin:zinc complexes and methods for the same” (Colgate-Palmolive Company, priority 2017, dated 2021).

The subject of one assay is IL-1a. Description: IL-1a assay using HaCaT cells stressed with 0.01% SDS (ELISA of cell supernatants). Format: cell-based. To be noted: 0.001% sample, 24 h pretreatment, 0.01% SDS stress 15 min, sample added again, normalized by cell viability.
For assay [1], the system named is human epidermal keratinocyte cells. Description: Scratch assay (cell migration / gap closure) using human epidermal keratinocyte cells. The assay is classed as cell-based. The note with it: 0.001% sample. The method, then: The cell regeneration function or properties of the naringin:zinc complex were evaluated via a scratch assay using human epidermal keratinocyte cells obtained from Thermal Fisher Scientific of Gaithersburg, Md. Particularly, monolayers of keratinocyte cells were gown to full confluency in separate wells, and each well was scratched with a 1000 μl tip to create a cell-free gap. Each of the wells with the cell-free gap was then washed with 1 mL of PBS twice to remove any dead floating cells. […] Distance measurements of the gap were taken every 24 hours until the gaps fully closed.
It should be appreciated that a relatively higher value of the percentage of gap closure indicates a relatively greater repair or regeneration function.

Experimental for IL-1a: The anti-inflammatory properties of the naringin:zinc complex was evaluated by conducting an IL-la assay using HaCaT cells. To evaluate the anti-inflammatory properties, HaCaT cells were grown into 80% confluency and pretreated for 24 hours with 1 mL of each of the following samples: (1) a culture media (control); (2) 0.001% naringin:zinc complex; and (3) 0.001% naringin alone.
After pretreating the HaCaT cells, the cells were stressed with 0.01% SDS for 15 minutes before adding another 1 mL of each of the samples (1)-(3). Each of the HaCaT cells were used to prepare cell supernatants, which were used for IL-la assays with IL-la ELISA kits.

Consider `C[C@@H]1O[C@@H](O[C@H]2[C@H](Oc3cc(O)c4c(c3)O[C@H](c3ccc(O)cc3)CC4=O)O[C@H](CO)[C@@H](O)[C@@H]2O)[C@H](O)[C@H](O)[C@H]1O` [Naringin, naringin], for which the IL-1a level in the assay on IL-1a stood at 6.6 pg/mL. The Cell Migration of Keratinocytes (% Active); percentage of gap closure versus the starting gap distance in assay [1] turned out to be 58%.
